Source: patent publication US8906846B2, “Method of treating inflammatory bowel disease by administering a clip-inducing agent” (The Texas A&M University System, priority 2011, dated 2014)

Experiments:
C57BL/6 splenocytes = assay: Effects of CpG, MKR.4 and anti-MHC class II antibody on C57BL/6 splenocyte viability counts (Example 2); format: cell-based, mouse; conditions: CpG 5 ug/mL at start, MKR.4 5 ug/mL 24 h later for 2 h, Anti MHC Class II 5 ug/mL, viability counts 24 h after antibody
Experimental: C57BL/6 were Prepared as Follows: • A spleen from a C57BL/6 mouse was placed in a cell strainer in a petri dish with 6 mL of PBS • The spleen was mashed to produce a cell suspension • The PBS splenocyte cell suspension was transferred into a labeled 15 mL conical tube and centrifuged for 5 minutes at 1000 rpm • The pellet was resuspended in 1 mL of PBS • Geys was prepared to lyse the red blood cells • 7 mL of DI H20 • 0.5 mL of Geys B • 0.5 mL of Geys C • weighed out […] of NH4Cl • Mixed the […] of NH4Cl with 2 mL of Geys A • Transferred the dissolved solution to a 15 mL conical tube with the H20, Geys B, and Geys C • 3 mL of the Geys solution was added to the 1 mL of PBS cell suspension, mixed well and placed on ice for 1 minute (frequently inverted solution in tube on ice during the 1 minute) • The mixture was centrifuged for 5 minutes at 1000 rpm, washed with 5 mL of PBS, centrifuged for 5 minutes at 1000 rpm and resuspended in 10 mL of PBS • A hemacytometer count was performed: 99.0*10^6 cells total (9.9*10^6 cells/mL) plate 4*10^6 cells per well*8 wells=32 million; 32*10^6/9.9*10^6=3.23 mL of this suspension needed to obtain 32*10^6 cells • Centrifuged 3.23 mL of the suspension for 5 minutes at 1000 rpm and resuspended the pellet in 8 mL of 5% FBS RPMI • 1 mL of suspension was added to each well (12-well plate) • Added another 2 mL of 5% FBS RPMI to each well to bring the final volume up to 3 mL
(§1) 8 wells were set up for the experiment for each cell type (CRL-5822 and C57BL/6) with no treatment, with CpG, MKR.4 peptide, with MKR.4 peptide+CpG and with or without addition of purified Anti Class-II (HLA-DR,DP,DQ) treatment in the amounts listed below.
C57BL/6 • CpG: • (x) (1 mg/mL stock)=(5 ug/mL) (3 mL) • x=15 ul • MKR.4: • (x) (5 mg/mL stock)=(5 ug/mL) (3 mL) • x=3 ul • Anti MHC Class II • Treat at 5 ug/mL • Stock is at 1 mg/mL • (x) (1 mg/mL)=(5 ug/mL) (3 mL) • x=15 ul/well
(§2) CpG was administered to activate the cells and induce CLIP expression. MKR.4 was added to select wells 24 hours after cell activation. The cells were incubated with MKR.4 for 2 hours. Then fresh media with or without Anti MHC Class II was added. 24 hours after Anti MHC Class II was added to the wells viability counts were performed.

CRL-5822 cells [1] = assay: Effects of CpG, MKR.4 and anti-MHC class II antibody on CRL-5822 cell viability counts (Example 2); format: cell-based, human; conditions: CpG 1 ug/mL at start, MKR.4 2.5 ug/mL 24 h later for 2 h, Anti MHC Class II 5 ug/mL, viability counts 24 h after antibody
Experimental: CRL-5822 were Prepared as Follows: • Removed the media from a flask of CRL-5822 using a sterile glass pipet and vacuum • Added 1.5 mL of accutase to the flask and placed in incubator for 20 minutes • Washed with 3 mL of PBS • Transferred all to a sterile 15 mL conical tube • Centrifuged for 5′@1000 rpm • Removed supernatant with sterile glass pipet and vacuum • Resuspended in 3 mL of PBS • Performed a hemacytometer count indicating: 1.14*10^6 cells total of CRL-5822 cells • 1.14*10^6/8 wells+2 wells for culture maintenance=10 wells • 1.14*10^6/10 wells=[…] cells per well • Centrifuged the 3 mL of cell suspension for 5′ at 1000 rpm • Resuspended pellet in 10 mL of 10% FBS RPMI • 1 mL of this was added to 2 wells in a 12-well plate added 1 mL of fresh 10% FBS RPMI to each well to bring the total volume up to 2 mL.
as §1
CRL-5822 • CpG: • (x) (1 mg/mL stock)=(1 ug/mL) (2 mL) • x=2 ul • MKR.4: • (x) (5 mg/mL stock)=(2.5 ug/mL) (2 mL) • x=1 ul • Anti MHC Class II • Treat at 5 ug/mL • Stock is at 1 mg/mL • (x) (1 mg/mL)=(5 ug/mL) (2 mL) • x=10 ul/well
as §2

CRL-5822 cells [2] = assay: Effects of LPS, MKR.4 and anti-MHC class II antibody on CRL-5822 cell viability counts (Example 1); format: cell-based, human; conditions: LPS 1 ug/mL at start, MKR.4 2.5 ug/mL 24 h later for 2 h, Anti MHC Class II 5 ug/mL, viability counts 24 h after antibody
Experimental: Methods • The media was removed from a flask of CRL-5822 using a sterile glass pipet and vacuum and 1.5 mL of accutase was added to the flask and placed in incubator for 20 minutes • The cells were washed with 3 mL of PBS and transferred to a sterile 15 mL conical tube and centrifuged for 5 minutes @1000 rpm • The supernatant was removed with sterile glass pipet and vacuum and the pellet resuspended in 5 mL of PBS • A cell count was performed using the TC-10 automated counter • Loaded 10 ul of cell suspension+10 ul of trypan blue into disposable counting slide • Loaded slide into the TC-10 • Count • Live: 3.54*10^4 cells/mL*5 mL=177,000 cells total • 177,000/9 wells (8 wells in experiment+1 to maintain culture)=19,666 cells/well (flask). • The 5 mL of cell suspension was centrifuged for 5′ at 1000 rpm, the pellet was resuspended in 9 mL of 10% FBS RPMI • 1 mL of the cell suspension was added to a T-25 flask that had 4 mL of media in it and placed in the incubator. • After culture 1 mL of the cell suspension was added to each well (8 wells in a labeled 24 well plate) • A fresh vial of MKR.4 was resuspended in sterile DMSO • 7 mg of peptide was used to make a 5 mg/mL stock • 7 mg/mL=5 mg/mL=1.4 mL of DMSO • The peptide was added into 1.4 mL of DMSO, under the hood to maintain sterility • Once all of the peptide was dissolved, 200 ul aliquots were made […]

Substance | Total Dead (C57BL/6 splenocytes) | Total Live (C57BL/6 splenocytes) | Total Dead (CRL-5822 cells [1]) | Total Live (CRL-5822 cells [1]) | Total Dead (CRL-5822 cells [2]) | Total Live (CRL-5822 cells [2])
5′-tcgtcgttttgtcgttttgtcgtt-3′ [CpG, reference compound] | 0.08*10^6 | 1.25*10^6 | 0.07*10^6 | 0.35*10^6 | – | –
ANS GFR IMA VLA SGG QY (ANSGFRIMAVLASGGQY) [MKR.4] | 0.10*10^6 | 0.44*10^6 | 0.08*10^6 | 0.24*10^6 | 0.07*10^6 | 0.32*10^6
